Measured values: the NIST ThermoML archive (doi:10.1016/j.jct.2011.02.008)

Test: xn = mol fraction of the nth substance listed
Details: Liquid, Vibrating tube method

COC(=O)c1ccccc1 [methyl benzoate] + CCCCCCO
mass density [kg/m3]
Details	x1 = 0.1004	x1 = 0.2007	x1 = 0.3007	x1 = 0.4013	x1 = 0.5005	x1 = 0.6009	x1 = 0.7	x1 = 0.8008	x1 = 0.9009
298.15 K, 10000 kPa	–	–	–	–	955.1	982	1008.4	1035.4	1062.3
298.15 K, 15000 kPa	851.5	878	904.9	931.7	958.3	985.1	1011.5	1038.5	1065.3
298.15 K, 20000 kPa	854.5	881.1	907.9	934.7	961.3	988.1	1014.5	1041.5	1068.3
298.15 K, 25000 kPa	857.5	884.1	910.9	937.7	964.2	991	1017.4	1044.4	1071.2
298.15 K, 30000 kPa	860.4	886.9	913.8	940.5	967.1	993.9	1020.3	1047.2	1074
298.15 K, 35000 kPa	863.2	889.7	916.6	943.3	969.9	996.6	1023	1049.9	1076.7
298.15 K, 40000 kPa	865.9	892.5	919.3	946.1	972.6	999.3	1025.7	1052.6	1079.4
298.15 K, 45000 kPa	868.6	895.1	921.9	948.7	975.3	1002	1028.4	1055.3	1082
298.15 K, 50000 kPa	871.1	897.7	924.5	951.3	977.8	1004.6	1031	1057.9	1084.6
298.15 K, 55000 kPa	873.7	900.2	927.1	953.9	980.4	1007.2	1033.5	1060.4	1087.1
298.15 K, 60000 kPa	876	902.5	929.4	956.2	982.7	1009.5	1035.9	1062.7	1089
308.15 K, 100 kPa	834	860.4	886.9	913.6	939.9	966.6	993	1019.9	1046.6
308.15 K, 1000 kPa	834.6	861.1	887.5	914.2	940.6	967.2	993.7	1020.5	1047.2
308.15 K, 5000 kPa	837.5	864	890.4	917.1	943.4	970	996.4	1023.2	1049.9
308.15 K, 10000 kPa	841	867.4	893.8	920.5	946.8	973.4	999.7	1026.5	1053.1
308.15 K, 15000 kPa	844.3	870.7	897.1	923.7	950	976.6	1003	1029.7	1056.4
308.15 K, 20000 kPa	847.5	873.9	900.3	926.9	953.2	979.8	1006.1	1032.8	1059.4
308.15 K, 25000 kPa	850.6	877	903.4	930	956.3	982.9	1009.1	1035.8	1062.5
308.15 K, 30000 kPa	853.6	879.9	906.4	933	959.3	985.9	1012.1	1038.8	1065.3
308.15 K, 35000 kPa	856.5	882.8	909.3	935.9	962.1	988.8	1014.9	1041.7	1068.2
308.15 K, 40000 kPa	859.3	885.7	912.1	938.7	965	991.6	1017.7	1044.5	1071
308.15 K, 45000 kPa	862.1	888.4	914.9	941.5	967.8	994.3	1020.5	1047.2	1073.7
308.15 K, 50000 kPa	864.7	891.1	917.6	944.1	970.5	997.1	1023.2	1049.9	1076.4
308.15 K, 55000 kPa	867.4	893.7	920.2	946.8	973.1	999.7	1025.8	1052.5	1079.1
308.15 K, 60000 kPa	869.7	896.1	922.6	949.4	975.5	1002.1	1028.2	1055	1081.5
318.15 K, 100 kPa	826.4	852.5	878.7	905.1	931.2	957.7	983.9	1010.7	1037.2
318.15 K, 1000 kPa	827.1	853.1	879.4	905.8	931.9	958.4	984.6	1011.3	1037.8
318.15 K, 5000 kPa	830.1	856.2	882.4	908.7	934.8	961.3	987.5	1014.2	1040.7
318.15 K, 10000 kPa	833.8	859.7	886	912.3	938.4	964.9	991	1017.6	1044.1
318.15 K, 15000 kPa	837.2	863.2	889.4	915.8	941.8	968.2	994.3	1021	1047.4
318.15 K, 20000 kPa	840.6	866.6	892.8	919.1	945.2	971.5	997.6	1024.3	1050.6
318.15 K, 25000 kPa	843.8	869.8	896	922.3	948.4	974.6	1000.8	1027.4	1053.8
